Literature values, collected in US20220331268A1, “TREATMENT OF SKIN DISORDERS WITH TOPICAL COMBINATION COMPOSITIONS COMPRISING TAPINAROF AND AN ADDITIONAL AHR ACTIVATOR” (Sol-Gel Technologies Ltd., priority 2019, published 2022).

Experiments:
[1] = psoriasis treatment, single drug; placebo 20.2%
[2] = 1% tapinarof arm compared with 0.5% arm or vehicle
[3] = test system: interleukin-6 and interleukin-17A; conditions: mouse models and in vitro human skin studies
[4] = across all groups treated

CC(C)c1c(O)cc(/C=C/c2ccccc2)cc1O [Tapinarof, 3,5-dihydroxy-4-isopropyl-trans-stilbene]
adverse effects [1]: 44.5%
efficacy [2]: higher efficacy
onset of action [2]: quicker onset of action
effect on proinflammatory mediators including interleukin-6 and interleukin-17A [3]: inhibit
skin barrier function [3]: enhance skin barrier function
contact dermatitis (side-effect, among most common) [4]: > 5%
folliculitis (side-effect) [4]: 9%

C=C1/C(=C\C=C2/CCC[C@]3(C)[C@@H]([C@H](C)/C=C/[C@@H](O)C4CC4)CC[C@@H]23)C[C@@H](O)C[C@@H]1O [calcipotriene]
adverse effects [1]: 19.5%
